Patent US6653290B2, “Tumor proliferation inhibitors” (Bristol-Myers Squibb Company, priority 2000, dated 2003)

Assays:
[1] = tested on: murine P388 cell line; test: Cell-based cytotoxicity (XTT proliferation inhibition) against murine P388 cell line; details: Mus musculus, P388 cells, 72 h incubation, absorbance at 450 nm, read-out: IC50 (drug concentration required to inhibit cell proliferation to 50% of untreated control cells)
Protocol: The proliferation inhibition activity against murine P388 cell line was measured as follows. Evaluation of a soluble tetrazolium/formazan assay for cell growth and drug sensitivity in culture, using human and other tumor cell lines, was done according to the procedure described in Cancer Res. 1988, 48, 4827-4833. Cells were plated at 4000 cells/well in 96 well microtiter plates and 24 h later drugs were added and serially diluted. The cells were incubated at 37° C. for 72 h, at which time a tetrazolium dye, XTT, containing phenazine methosulfate was added. A dehydrogenase enzyme in live cells reduced the XTT to a form that absorbs light at 450 nm, which could be quantitated spectrophotometrically. The greater the absorbance the greater the number of live cells. The results are expressed as an IC50, which is the drug concentration required to inhibit cell proliferation (i.e., absorbance at 450 nm) to 50% of that of untreated control cells.

[2] = molecular target: T1, purified human topoisomerase I (Homo sapiens, UniProt P11387); test: Topoisomerase I activity (in vitro): compound-induced, topoisomerase I-mediated single strand breaks in PM2 DNA; assay type: biochemical; details: purified human topoisomerase I (Topogen), 30 minutes at 37° C., read-out: EC50 (median effective concentration for inducing topoisomerase I-mediated single strand breaks in DNA)
T1 construct: purchased Topogen
T1 sequence (P11387 1-765): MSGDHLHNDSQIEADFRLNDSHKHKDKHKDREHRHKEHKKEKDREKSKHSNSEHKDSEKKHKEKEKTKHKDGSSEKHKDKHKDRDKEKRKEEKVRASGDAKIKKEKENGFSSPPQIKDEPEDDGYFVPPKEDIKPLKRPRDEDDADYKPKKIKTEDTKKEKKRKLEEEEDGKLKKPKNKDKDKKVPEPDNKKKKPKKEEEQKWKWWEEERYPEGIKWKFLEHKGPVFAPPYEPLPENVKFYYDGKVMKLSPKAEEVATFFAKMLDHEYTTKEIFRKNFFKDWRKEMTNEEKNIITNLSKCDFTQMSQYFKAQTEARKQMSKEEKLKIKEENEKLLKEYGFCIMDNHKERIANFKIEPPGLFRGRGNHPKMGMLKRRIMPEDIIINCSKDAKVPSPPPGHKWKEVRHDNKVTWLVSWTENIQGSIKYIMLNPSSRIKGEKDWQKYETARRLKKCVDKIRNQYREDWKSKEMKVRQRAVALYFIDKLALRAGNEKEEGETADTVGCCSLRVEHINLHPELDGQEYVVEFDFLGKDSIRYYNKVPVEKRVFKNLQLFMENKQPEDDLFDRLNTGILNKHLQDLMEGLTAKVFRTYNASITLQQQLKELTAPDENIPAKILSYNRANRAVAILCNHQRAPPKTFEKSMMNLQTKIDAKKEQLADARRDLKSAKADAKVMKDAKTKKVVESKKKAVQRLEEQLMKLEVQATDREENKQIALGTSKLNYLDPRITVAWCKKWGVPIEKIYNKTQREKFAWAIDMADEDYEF
Protocol: Topoisomerase I activity was measured as described below. The procedure for assaying compound-induced, topoisomerase I-mediated single strand breaks in DNA was essentially that described by Hsiang, et al., (J. Biol. Chem. 1985, 260,14873-14878). Samples dissolved in 100% DMSO as either 10 μM or 10 mg/ml solutions, unless otherwise stated, were diluted in Tris-EDTA buffer. Marine bacteriophage PM2 DNA (Boehringer Mannheim) was also diluted in Tris-EDTA buffer to a concentration of 0.02 μg/μl. Different dilutions of compound being evaluated were mixed with diluted DNA and this mixture was added to 1000 unit (one unit of enzyme activity is defined as the amount capable of relaxing 100 ng of supercoiled DNA in approximately 30 minutes at 37° C.) aliquots of purified human topoisomerase I (Topogen) in 2×reaction buffer to start the reaction. The compound—DNA—enzyme mixture was incubated for 30 minutes at 37° C. before stopping the reaction with warm stop buffer containing sodium dodecyl sulfate and proteinase K (Sigma). These mixtures were allowed to incubate at 37° C. for another 10 minutes, at which time the mixtures were removed from the waterbath and extracted with a 24:1 mixture of chloroform/isoamyl alcohol. Following centrifugation, aliquots of the aqueous phases were placed in wells of a 0.9% agarose (SeaKem) gel in Tris-borate buffer containing 0.5 μg/ml of ethidium bromide and subjected to electrophoresis for 15 hours to separate the different topological isomers and nicked and broken DNAs. After destaining the gel in water, the ethidium bromide stained DNA reaction products were visualized by exposing the gel to UV irradiation. Negatives of photographs of the irradiated gels were scanned with a densitometer and areas under the peaks were calculated in order to obtain percent single strand DNA break formation for each sample. A median effective concentration (EC50) was obtained for each compound by interpolation between points of the resulting dose-effect curve which defines the potency of the compound for its effect in inducing topoisomerase I-mediated single strand breaks in DNA. The topoisomerase I activity for selected compounds of the present invention is shown below in Table I.

EC50 [2] [nM] | SMILES | IC50 [1] [nM]
40 | O=C1NC(=O)c2c1c1c3cc(F)c(F)cc3[nH]c1c1c2c2cc(F)c(F)cc2n1[C@@H]1OC(CO)(CO)C[C@H](O)[C@H]1O [Example 1, 2,3,9, 10-Tetrafluoro-12-[5-C-(hydroxymethyl)-4-deoxy-β-D-glucopyranosyl]-indolo[2,3-a]pyrrolo[3,4-c]carbazole-5,7-dione] | 35
70 | CO[C@@]1(C)C[C@H](O)[C@@H](O)[C@H](n2c3cc(F)c(F)cc3c3c4c(c5c6cc(F)c(F)cc6[nH]c5c32)C(=O)NC4=O)O1 [Example 6, 2 , 3,9, 10-Tetrafluoro-12-(4,6-dideoxy-5-methoxy-β-D-glucopyranosyl) -6,7, 12, 13-tetrahydro(5H)indolo[2,3-a]pyrrolo[3,4-c]carbazole-5,7-dione] | 50
270 | CO[C@]1(CO)O[C@@H](n2c3cc(F)c(F)cc3c3c4c(c5c6cc(F)c(F)cc6[nH]c5c32)C(=O)NC4=O)[C@H](O)[C@@H](O)[C@@H]1O [Example 7, 2,3,9, 10-Tetrafluoro-12-(5-methoxy-β-D-glucopyranosyl)-6,7, 12, 13-tetrahydro(5H)indolo[2,3-a]pyrrolo[3,4-c]carbazole-5,7-dione] | 250
50 | CO[C@@]1(CO)C[C@H](O)[C@@H](O)[C@H](n2c3cc(F)c(F)cc3c3c4c(c5c6cc(F)c(F)cc6[nH]c5c32)C(=O)NC4=O)O1 [Example 8, 2,3,9, 10-Tetrafluoro-12-(4-deoxy-5-methoxy-β-D-glucopyranosyl) -6,7, 12, 13-tetrahydro(5H)indolo[2,3-a]pyrrolo[3,4-c]carbazole-5,7-dione] | 35

Further lines, the compound ahead of its results:

SMILES | EC50 [2] [nM] | IC50 [1] [nM]
CO[C@@]1(C)C[C@H](O)[C@@H](O)[C@H](n2c3ccc(F)cc3c3c4c(c5c6cc(F)ccc6[nH]c5c32)C(=O)NC4=O)O1 [Example 9, 3,9-Difluoro-12-(4,6-dideoxy-5-methoxy-β-D-glucopyranosyl)-6,7, 12, 13-tetrahydro(5H)indolo[2,3-a]pyrrolo[3,4-c]carbazole-5,7-dione] | – | 7
CCOC1(C)CC(O)C(O)C(n2c3ccc(F)cc3c3c4c(c5c6cc(F)ccc6[nH]c5c32)C(=O)NC4=O)O1 [Example 10, 3,9-Difluoro-12-(4,6-dideoxy-5-ethoxy-6-D-glucopyranosyl)-6,7, 12, 13-tetrahydro(5H)indolo[2,3-a]pyrrolo[3,4-c]carbazole-5,7-dione] | – | 55
CC(C)OC1(C)CC(O)C(O)C(n2c3ccc(F)cc3c3c4c(c5c6cc(F)ccc6[nH]c5c32)C(=O)NC4=O)O1 [Example 11, 3,9-Difluoro-12-(4,6-dideoxy-5-isopropoxy-δ-D-glucopyranosyl)-6,7, 12, 13-tetrahydro(5H)indolo[2,3-a]pyrrolo[3,4-c]carbazole-5,7-dione] | – | 200
COC1(C)CC(O)C(O)C(n2c3cc(F)c(F)cc3c3c4c(c5c6cc(F)c(F)cc6sc5c32)C(=O)NC4=O)O1 [Example 12, 2,3,9, 10-Tetrafluoro-12-(4,6-dideoxy-5-methoxy-δ-D-glucopyranosyl)-6,7, 12, 13-tetrahydro(5H)benzo[b]thieno[2,3-a]pyrrolo[3,4-c]carbazole-5,7-dione] | – | 69
